Patent publication US20070243221A1, “ANTI-WRINKLE COMPOSITION” (L'OREAL, priority 2006, published 2007)

Test system: normal human fibroblasts
Assay: Dermo-decontracting effect: spontaneous contraction of equivalent dermis (collagen matrix seeded with normal human fibroblasts)
Format: cell-based
Conditions: on average over the duration of the experiment (0, 4, 8 and 24 hours), equivalent dermis surface area
Text: The principle of this test consists in studying the effect of the test product on a model of equivalent dermis consisting of a collagen matrix seeded with normal human fibroblasts.
These conditions are intended to mimic in vitro the dermal contractile phenomena that take place during facial movements. The reason for this is that, under these conditions, the cells spontaneously exert tensile forces that induce a shrinkage of the collagen gel. […] Measurement of this area makes it possible to evaluate the relaxation effects of the substances placed in contact beforehand with the equivalent dermis.
Two series of attached equivalent dermides containing normal human fibroblasts are prepared: a control series without any treatment, and a series treated with the test compound (1 μM). The experiment is repeated three times.
The dermal equivalents are prepared as described in Asselineau et al., Exp. Cell. Res., 1985, 159, 536-539; Models in dermatology, 1987, vol. 3, pp. 1-7, in the following proportions:
The treated equivalent dermis differs from the control equivalent dermis in that 1 μM of the test compound has been added thereto. […]
To do this, a digital image is acquired for each treated or untreated equivalent dermis using a camera (CCD camera—Iris Sony DXC-107P) and the surface area is then calculated on each image by means of an image analysis system (Zeiss Axiovision 3.0). […]

Row | SMILES | reduces the contraction of fibroblasts, compared with the control (tested at 1 μM) [%] | reduces the contraction of fibroblasts, compared with the control (tested at 10 μM) [%]
1 | c1ccc(CCCNC2CCN(CCc3ccccc3)CC2)cc1 [compound 1, 1-(2-phenylethyl)-4-[N-(3-phenylpropyl)]aminopiperidine] | 21 | –
2 | CC(NC1CCN(CCc2ccccc2)CC1)c1ccccc1 (centres unmarked) [compound 5, 1-(2-phenylethyl)-4-[N-(1-phenylethyl)]aminopiperidine] | – | 40
